Reference: patent publication US11085081B2, “Methods and materials for determining pain sensitivity and predicting and treating related disorders” (The University of North Carolina at Chapel Hill, priority 2004, dated 2021)
“Also recorded” adds a separate entry of the source.

Legend:
[1] = test system: Sprague-Dawley rats; experiment: Mechanical and thermal pain behavior testing (von Frey monofilaments, radiant heat); type: in vivo, rat; conditions: for paw withdrawal frequency to mechanical stimuli (25 g monofilament) / paw withdrawal latency to thermal stimuli / paw withdrawal threshold to mechanical stimuli: OR486 or RO41-0960 30 mg/kg i.p., or 3% carrageenan i.pl.; for paw withdrawal frequency to mechanical stimuli (25 g monofilament) / paw withdrawal latency to thermal stimuli / paw withdrawal threshold to mechanical stimuli / paw withdrawal frequency to mechanical stimuli, antagonist in the absence of OR486 / paw withdrawal latency to radiant heat, antagonist in the absence of OR486 / paw withdrawal threshold to mechanical stimuli, antagonist in the absence of OR486: relative to vehicle; for blockade of OR486-induced hyperalgesia / heightened pain sensitivity: antagonist i.p. prior to OR486; for paw withdrawal frequency to mechanical stimuli, antagonist in the absence of OR486 / paw withdrawal latency to radiant heat, antagonist in the absence of OR486 / paw withdrawal threshold to mechanical stimuli, antagonist in the absence of OR486: i.p. 10 min prior to vehicle, phentolamine 3, propranolol 3, SCH23390 0.2, spiperone 0.2, betaxolol 1.0, ICI118,551 0.5, SR59230A 5 mg/kg
Method: Rats were placed in plexiglass cages positioned over an elevated perforated stainless steel platform and habituated to the environment for 15-25 min prior to testing. Paw withdrawal threshold to punctate mechanical stimulation was assessed using the up-down method of Chaplan et al. (1994). A series of nine calibrated filaments (with bending forces of 0.40, 0.68, 1.1, 2.1, 3.4, 5.7, 8.4, 13.2, and 25.0 g; Sammons Preston Rolyan, Bolingbrook, Ill., U.S.A.) with approximately equal logarithmic spacing between stimuli (Mean±SEM: 0.232±0.04 units) were presented to the hind paw in successive order, whether ascending or descending. Filaments were positioned in contact with the hind paw for a duration of 3 s or until a withdrawal response occurred. Testing was initiated with the middle hair of the series (3.4 g). In the absence of a paw withdrawal response, an incrementally stronger filament was presented and in the event of a paw withdrawal, an incrementally weaker filament was presented. After the initial response threshold was crossed, this procedure was repeated four times in order to obtain a total of six responses in the immediate vicinity of the threshold. The presence of paw withdrawal (X) and absence of withdrawal (O) was noted together with the terminal filament used in the series of six responses. The 50% g threshold=(10^[Xf+kδ])/10,000, where Xf=value (in log units) of the final von Frey hair used; k=tabular value of pattern of positive (X) and negative (O) responses, and δ=mean difference (in log units) between stimuli.
Immediately following determination of the response threshold, paw withdrawal frequency (%) to punctate mechanical stimulation was assessed. A von Frey monofilament with a calibrated bending force of 25 g was presented to the hind paw 10 times for a duration of 1 s with an interstimulus interval of approximately 1 s. Mechanical hyperalgesia was defined as an increase in the percentage frequency ([# of paw withdrawals/10]×100) of paw withdrawal evoked by stimulation with von Frey monofilaments.
Thermal hyperalgesia was evaluated using the radiant heat method of Hargreaves et al. (1988) in the same animals evaluated for responsiveness to von Frey monofilaments. Radiant heat was presented through the floor of a finely perforated stainless steel platform to the midplantar region of the hind paw.
After establishing stable baseline responsiveness to mechanical and thermal stimuli, separate groups of rats received intraperitoneal injections of OR486 (30 mg/kg i.p.; N=8) or vehicle (N=8) one hour prior to behavioral testing. Responsiveness to von Frey filaments was reassessed at 30 min intervals for 2 hours. Paw withdrawal latencies to radiant heat were subsequently assessed at 2.5 hours into the testing procedure. Twenty-four hours later, baseline responsiveness to mechanical and thermal stimuli was reestablished. Animals received OR486 (30 mg/kg i.p.) or vehicle (consistent with the previous day). Thirty minutes following administration of drug or vehicle, separate groups of rats received intraplantar carrageenan (N=4 per group) or saline (N=4 per group). Responsiveness to von Frey filaments was reassessed at 30 min intervals for 2 hours following the induction of inflammation. Paw withdrawal latencies to radiant heat were subsequently assessed at 2.5 hours post carrageenan.
Rats were handled and habituated to the testing environment 2-3 days prior to establishing baseline responsiveness. On test days, rats were placed in plexiglass cages positioned over an elevated perforated stainless steel platform and habituated to the environment for 15-20 minutes prior to testing. Paw withdrawal threshold to punctate mechanical stimulation was assessed using the up-down method of Chaplan (Chaplan et al. (1994)). […]

[2] = test system: TNFα, IL-1β, and IL-6; experiment: In vivo plasma cytokine measurement (ELISA); parameters: species or system rat; conditions: rats; for plasma levels of IL-6 / plasma levels of TNFα: OR486 or RO41-0960 30 mg/kg i.p., or 3% carrageenan i.pl.; for plasma levels of IL-6 / plasma levels of TNFα / plasma levels of IL-1β: relative to vehicle; for plasma levels of IL-1β: OR486 30 mg/kg i.p. or 3% carrageenan i.pl.
Method: Blood was centrifuged and plasma separated from red blood cells. Plasma IL-6 was measured in duplicate using enzyme-linked immunosorbant assay (ELISA) kits from R&D systems (Minneapolis, Minn., U.S.A.). Plasma TNFα and IL-1β were measured in duplicate by the University of North Carolina Proteomics Ilmmunotechnologies Core using ELISA kits from Biosource (Camarillo, Calif., U.S.A.) and the National Institute for Biological Standards and Control (UK), respectively.

[3] = test system: 3T3-L1 adipocytes; experiment: In vitro cytokine measurement (real time PCR of transcripts) in adipocytes; type: cell-based, mouse; conditions: salmeterol 0.5 μM or CL316243 0.3 μM, 1 hr treatment; normalized to GAPDH
Method: Cell growth media consisted of Dulbecco's modified Eagle's medium supplemented with 10% heat-inactivated fetal bovine serum (Sigma, St. Louis, Mo., U.S.A.) and 1× penicillin-streptomycin (Gibco, Carlsbad, Calif., U.S.A.). Cells were maintained in a humidified atmosphere of 95% air and 5% CO2.
Two days after reaching confluence in growth media, adipogenesis was induced by incubating cells in growth media containing 0.25 μM dexamethasone (Sigma), 0.5 mM IBMX (Sigma), and 1 μM insulin (Sigma). After an additional 2 days in growth media containing 1 μM insulin, cells were grown for 6-8 days in normal growth media.
Total RNA was isolated using the RNeasy Mini Kit (Qiagen, Valencia, Calif., U.S.A.). RNA was then treated with 2 units of DNase I (Ambion, Austin, Tex., U.S.A.) at 37° C. for 30 min. Reverse transcription was performed according to the manufacturer's instructions. Briefly, the reverse transcription reaction mixture consisted of 1 μg DNase 1-treated RNA, 500 ng oligo-dT12-18, 10 mM dNTP, 40 units RNasin (Promega, Madison, Wis., U.S.A.), and 200 units of reverse transcriptase SUPERSCRIPT III™ (Invitrogen, Carlsbad, Calif., U.S.A.). cDNA synthesis was carried out at 50° C. for 1 hr followed by inactivation of reverse transcriptase at 70° C. for 15 min.
Mouse macrophages (RAW 264.7) and […] preadipocytes (3T3-L1) were obtained from the University of North Carolina Tissue Culture Facility. Cell maintenance and 3T3-L1 preadipocyte differentiation is described herein below. For pharmacological experiments, cells were seeded at a density of 5×10^5 cells/well in a 12-well plate (Corning). Total RNA was isolated and reverse transcribed as described in the supplementary materials. TNFα, IL-1β, and IL-6 transcripts were quantitated in quadruplicate by real time polymerase chain reaction using TAQMAN® Gene Expression Assays (Applied Biosystems, Foster City, Calif., U.S.A.) in an ABI PRISM 7000 Sequence Detection System. TNFα, IL-1β, and IL-6 transcript levels were normalized to Glyceraldehyde-3-phosphate dehydrogenase (GAPDH).

[4] = i.p. 10 min prior to OR486, ICI118,551 0.5 or 5.0 mg/kg, SR59230A 5 or 50 mg/kg, betaxolol 0.1, 1.0, 10 mg/kg, relative to vehicle prior to OR486
[5] = OR486 30 mg/kg i.p., relative to vehicle or carrageenan in the contralateral non-inflamed paw
[6] = propranolol 3 mg/kg i.p. 10 minutes prior to OR486, relative to vehicle, phentolamine, SCH23390 or spiperone prior to OR486
[7] = propranolol 3 mg/kg i.p. prior to OR486, relative to vehicle prior to OR486

O=C(c1cc(O)c(O)c([N+](=O)[O-])c1)c1ccccc1F [RO41-0960]
paw withdrawal frequency to mechanical stimuli (25 g monofilament) [1]: increased paw withdrawal frequency | paw withdrawal latency to thermal stimuli [1]: decreased paw withdrawal latency | paw withdrawal threshold to mechanical stimuli [1]: decreased paw withdrawal threshold | mechanical and thermal pain sensitivity ([1]; RO41-0960 30 mg/kg i.p.): decreased mechanical and thermal pain sensitivity | plasma levels of IL-6 [2]: a trend towards elevated levels | plasma levels of TNFα [2]: elevated plasma levels | plasma proinflammatory cytokine production ([2]; RO41-0960 30 mg/kg i.p. vs vehicle, 30 mg/kg): increased cytokine production; also recorded: increases plasma proinflammatory cytokine levels | increase in plasma levels of IL-1β ([2]; RO41-0960 30 mg/kg i.p. vs vehicle, no statistical analysis (sample loss)): 4.5 fold

Cc1ccc(N(CC2=NCCN2)c2cccc(O)c2)cc1 [phentolamine]
blockade of OR486-induced hyperalgesia / heightened pain sensitivity [1]: failed to block | paw withdrawal frequency to mechanical stimuli, antagonist in the absence of OR486 [1]: failed to affect | paw withdrawal latency to radiant heat, antagonist in the absence of OR486 [1]: failed to affect | paw withdrawal threshold to mechanical stimuli, antagonist in the absence of OR486 [1]: failed to affect

carrageenan
paw withdrawal frequency to mechanical stimuli (25 g monofilament) [1]: increased paw withdrawal frequency | paw withdrawal latency to thermal stimuli [1]: decreased paw withdrawal latency | paw withdrawal threshold to mechanical stimuli [1]: decreased paw withdrawal threshold | plasma levels of IL-1β [2]: elevated levels | plasma levels of IL-6 [2]: elevated levels | plasma levels of TNFα [2]: elevated levels

O=C(CCCN1CCC2(CC1)C(=O)NCN2c1ccccc1)c1ccc(F)cc1 [spiperone]
blockade of OR486-induced hyperalgesia / heightened pain sensitivity [1]: failed to block | paw withdrawal frequency to mechanical stimuli, antagonist in the absence of OR486 [1]: failed to affect | paw withdrawal latency to radiant heat, antagonist in the absence of OR486 [1]: failed to affect | paw withdrawal threshold to mechanical stimuli, antagonist in the absence of OR486 [1]: failed to affect

CC(C)NCC(O)COc1ccc(CCOCC2CC2)cc1 (stereo not shown) [betaxolol]
paw withdrawal latency to radiant heat after OR486, selective βAR antagonists ([1]; i.p. 10 min prior to OR486, ICI118,551 5.0 mg/kg, SR59230A 5 or 50 mg/kg, betaxolol 0.1, 1.0, 10 mg/kg, relative to vehicle prior to OR486): failed to alter | paw withdrawal frequency to mechanical stimuli after OR486, selective βAR antagonists [1, 4]: failed to alter | paw withdrawal threshold to mechanical stimuli after OR486, selective βAR antagonists [1, 4]: failed to alter | paw withdrawal frequency to mechanical stimuli, antagonist in the absence of OR486 [1]: failed to affect | paw withdrawal latency to radiant heat, antagonist in the absence of OR486 [1]: failed to affect | paw withdrawal threshold to mechanical stimuli, antagonist in the absence of OR486 [1]: failed to affect

O=[N+]([O-])c1cc(O)c(O)c([N+](=O)[O-])c1 [OR486]
degree of mechanical and thermal hyperalgesia ([1]; OR486 30 mg/kg i.p. compared with carrageenan-induced inflammation of the hindpaw): comparable to that produced by carrageenan-induced inflammation | paw withdrawal frequency to 25 g monofilament, non-inflamed paw [1, 5]: increased paw withdrawal frequency | paw withdrawal latency to thermal stimuli, non-inflamed paw [1, 5]: decreased paw withdrawal latency | paw withdrawal threshold to mechanical stimuli, non-inflamed paw [1, 5]: decreased paw withdrawal threshold | paw withdrawal frequency to mechanical stimuli (25 g monofilament) [1]: increased paw withdrawal frequency | paw withdrawal latency to thermal stimuli [1]: decreased paw withdrawal thresholds; also recorded: decreased paw withdrawal latency | paw withdrawal threshold to mechanical stimuli [1]: significantly decreased paw withdrawal threshold | plasma levels of IL-1β ([2]; 30 mg/kg): elevated plasma levels | plasma levels of IL-6 [2]: elevated plasma levels | plasma levels of TNFα [2]: elevated plasma levels

CC(C)NCC(O)COc1cccc2ccccc12 (stereo not shown) [propranolol]
blockade of OR486-induced hyperalgesia / heightened pain sensitivity [1]: completely blocks | paw withdrawal frequency to mechanical stimuli, antagonist in the absence of OR486 [1]: failed to affect | paw withdrawal latency to radiant heat, antagonist in the absence of OR486 [1]: failed to affect | paw withdrawal threshold to mechanical stimuli, antagonist in the absence of OR486 [1]: failed to affect | paw withdrawal frequency to mechanical stimuli after OR486 [1, 6]: normalized | paw withdrawal latency to radiant heat after OR486 [1, 6]: normalized | paw withdrawal threshold to mechanical stimuli after OR486 [1, 6]: normalized | plasma levels of IL-1β after OR486 [2, 7]: normalized plasma levels; also recorded: decreased plasma levels | plasma levels of IL-6 after OR486 [2, 7]: normalized plasma levels; also recorded: decreased plasma levels | plasma levels of TNFα after OR486 [2, 7]: normalized plasma levels; also recorded: decreased plasma levels

C[C@H](Cc1ccc2c(c1)OC(C(=O)[O-])(C(=O)[O-])O2)NC[C@H](O)c1cccc(Cl)c1.[Na+].[Na+] [CL316243, disodium (R,R)-5-(2-[{2-(3-chlorophenyl)-2-hydroxyethyl}-amino]propyl)-1,3-benzodioxole-2,2, dicarboxylate]
increase in IL-6 mRNA levels in adipocytes [3]: 28 fold
